Reference: PMC7251241 (EBioMedicine, 2020)

T1: SapC (saposin C) (Homo sapiens, UniProt P07602)
T1 sequence (P07602 311-390 limits assumed): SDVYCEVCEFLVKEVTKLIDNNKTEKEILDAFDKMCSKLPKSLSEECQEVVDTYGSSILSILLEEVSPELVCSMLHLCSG

T2: acid β-glucosidase (GCase), Velaglucerase alfa (human, UniProt P04062 40-536, mannosyl-terminated oligosaccharide chains)
T2 sequence (looked up): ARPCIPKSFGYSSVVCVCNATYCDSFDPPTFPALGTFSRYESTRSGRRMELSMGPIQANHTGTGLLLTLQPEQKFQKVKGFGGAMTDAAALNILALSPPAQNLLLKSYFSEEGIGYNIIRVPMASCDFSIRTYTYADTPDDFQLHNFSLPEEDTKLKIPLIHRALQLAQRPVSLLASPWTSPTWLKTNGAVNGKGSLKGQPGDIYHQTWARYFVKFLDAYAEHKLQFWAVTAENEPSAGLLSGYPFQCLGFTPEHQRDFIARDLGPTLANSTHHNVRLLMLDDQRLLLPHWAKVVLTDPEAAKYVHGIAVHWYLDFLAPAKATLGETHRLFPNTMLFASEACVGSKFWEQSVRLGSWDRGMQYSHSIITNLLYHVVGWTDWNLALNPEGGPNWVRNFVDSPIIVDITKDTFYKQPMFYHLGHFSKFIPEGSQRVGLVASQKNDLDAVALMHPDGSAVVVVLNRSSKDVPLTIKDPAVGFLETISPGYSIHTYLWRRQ

B1: saposin C (SapC) (natural protein, UniProt P07602 311-390, looked up)
chain: T1 sequence (P07602 311-390 limits assumed)

How the values were obtained:
[1] = target: T1, SapC (saposin C); assay: microscale thermophoresis; type: binding
[2] = target: T2, acid β-glucosidase (GCase), …; assay: MST

Molecule	Kd [1]	Kd [2]
CCCCCCCC/C=C\CCCCCCCC(=O)OC[C@H](COP(=O)(O)OC[C@H](N)C(=O)O)OC(=O)CCCCCCC/C=C\CCCCCCCC [DOPS]	13.5 ± 1.65 nM	–
B1	–	29.4 ± 1.91 nM
